Reference: the supplement of paper PMC10307832

Assays:
Assay in all cases: relative viability (nuclei count vs DMSO), 5 days (fraction); higher = more cells survive
[1] = compound: Cc1cnc(CNC(=O)c2c(=O)c3ccc(N4CCCN(C)CC4)nc3n3c2sc2ccccc23)cn1 [CX-5461] + CC(C)C[C@H](NC(=O)[C@H](Cc1ccccc1)NC(=O)c1cnccn1)B(O)O [Bortezomib] (partner 0.002 µM)
In short: (§1)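 Lung cancer cell lines in 1536-well plates got either a single drug or a fixed anchor-drug dose together with five library-drug doses (not always all listed) in √10 steps, by pin tool, on the day after seeding. Nuclei were counted after 5 days, and relative viability is the treated-to-vehicle ratio of nuclei counts. Values are medians of duplicate plates.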

[2] = compound: Cc1cnc(CNC(=O)c2c(=O)c3ccc(N4CCCN(C)CC4)nc3n3c2sc2ccccc23)cn1 [CX-5461] + CCNC(=O)c1noc(-c2cc(C(C)C)c(O)cc2O)c1-c1ccc(CN2CCOCC2)cc1 [Luminespib] (partner 0.01 µM)
In short: as §1

[3] = compound: Cc1cnc(CNC(=O)c2c(=O)c3ccc(N4CCCN(C)CC4)nc3n3c2sc2ccccc23)cn1 [CX-5461] + Cc1nc(Nc2ncc(C(=O)Nc3c(C)cccc3Cl)s2)cc(N2CCN(CCO)CC2)n1 [Dasatinib] (partner 0.075 µM)
In short: as §1

[4] = compound: O=C(Nc1cc(C(F)(F)F)cc(C(F)(F)F)c1)c1cc(Cl)ccc1O [IMD-0354] + CS(=O)(=O)CCNCc1ccc(-c2ccc3ncnc(Nc4ccc(OCc5cccc(F)c5)c(Cl)c4)c3c2)o1 [Lapatinib] (partner 2 µM)
In short: as §1

UMC-11
relative viability ([1]; first compound 0.01 µM): 1.01
relative viability ([1]; first compound 0.03162 µM): 0.707
relative viability ([1]; first compound 0.1 µM): 0.514
relative viability ([1]; first compound 0.3162 µM): 0.797
relative viability ([1]; first compound 1 µM): 0.198
relative viability ([2]; first compound 0.01 µM): 1.01
relative viability ([2]; first compound 0.03162 µM): 0.931
relative viability ([2]; first compound 0.1 µM): 0.965
relative viability ([2]; first compound 0.3162 µM): 0.951
relative viability ([2]; first compound 1 µM): 0.423
relative viability ([3]; first compound 0.01 µM): 0.446
relative viability ([3]; first compound 0.03162 µM): 0.519
relative viability ([3]; first compound 0.1 µM): 0.364
relative viability ([3]; first compound 0.3162 µM): 0.39
relative viability ([3]; first compound 1 µM): 0.246
relative viability ([4]; first compound 0.04 µM): 1.07
relative viability ([4]; first compound 0.1265 µM): 0.939
relative viability ([4]; first compound 0.4 µM): 0.622
relative viability ([4]; first compound 1.265 µM): 0.239
relative viability ([4]; first compound 4 µM): 0.232
